Measured values from patent publication US20040116386A1, “Resveratrol-phospholipids complexes, their preparation, and pharmaceutical and cosmetic composition containing same” (priority 2001, published 2004).

How the values were obtained:
[1] = Pharmacokinetic study, oral administration to rats; type: in vivo; details: rat, blood, equimolecular doses (Resveratrol 2 mg/Kg, complex 9.13 mg/Kg)
Protocol: The product concentration in blood was determined at prefixed time intervals.

[2] = Permeability through rabbit colon, Ussing Chamber method; type: in vitro ADME
From the text: This device consists of: 6 cells divided into two parts by a septum, which accommodate the tissue obtained from the rabbit colon; an oxygenation system; a system for the circulation of a specific buffer solution maintained at constant temperature by heating; and finally electrodes for measuring the compound concentration variations, wherefrom the apparent permeability coefficient (Papp), expressed in cm/sec, is obtained.

With Oc1ccc(/C=C/c2cc(O)cc(O)c2)cc1 [trans-Resveratrol] the concentration at 15 min ([1]; 15 min) was 18 ng/mL, the concentration at 30 min ([1]; 30 min) was 34 ng/mL and the concentration at 60 min ([1]; 60 min) was 43 ng/mL. The concentration at 120 min ([1]; 120 min) was 11 ng/mL, the concentration at 240 min ([1]; 240 min) was 0 ng/mL and the Papp [2] was 0.2 ×10⁻⁶ cm/s.
